Experimental data published in patent US20090118332A1, “Therapeutic Agents - 551” (AstraZeneca AB, priority 2006, published 2009).

Target: T1, human Fatty Acid Synthase (Homo sapiens, UniProt P49327)
T1 construct: made in house
Assay: Human FAS enzyme assay (decrease in NADPH fluorescence)
Assay type: biochemical
Conditions: % inhibition at a concentration of 100 μmolar
Procedure, shortened: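 In-house human FAS was preincubated with compound and NADPH for 15 min at room temperature in 0.1 M Tris pH 7.5 with EDTA, glutathione and BSA. Malonyl CoA and acetyl CoA (500 μM and 150 μM in the added mix) were then added for 60 min. IC50 came from time-zero-subtracted NADPH fluorescence (340/460 nm).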

T1 sequence (P49327 whole entry): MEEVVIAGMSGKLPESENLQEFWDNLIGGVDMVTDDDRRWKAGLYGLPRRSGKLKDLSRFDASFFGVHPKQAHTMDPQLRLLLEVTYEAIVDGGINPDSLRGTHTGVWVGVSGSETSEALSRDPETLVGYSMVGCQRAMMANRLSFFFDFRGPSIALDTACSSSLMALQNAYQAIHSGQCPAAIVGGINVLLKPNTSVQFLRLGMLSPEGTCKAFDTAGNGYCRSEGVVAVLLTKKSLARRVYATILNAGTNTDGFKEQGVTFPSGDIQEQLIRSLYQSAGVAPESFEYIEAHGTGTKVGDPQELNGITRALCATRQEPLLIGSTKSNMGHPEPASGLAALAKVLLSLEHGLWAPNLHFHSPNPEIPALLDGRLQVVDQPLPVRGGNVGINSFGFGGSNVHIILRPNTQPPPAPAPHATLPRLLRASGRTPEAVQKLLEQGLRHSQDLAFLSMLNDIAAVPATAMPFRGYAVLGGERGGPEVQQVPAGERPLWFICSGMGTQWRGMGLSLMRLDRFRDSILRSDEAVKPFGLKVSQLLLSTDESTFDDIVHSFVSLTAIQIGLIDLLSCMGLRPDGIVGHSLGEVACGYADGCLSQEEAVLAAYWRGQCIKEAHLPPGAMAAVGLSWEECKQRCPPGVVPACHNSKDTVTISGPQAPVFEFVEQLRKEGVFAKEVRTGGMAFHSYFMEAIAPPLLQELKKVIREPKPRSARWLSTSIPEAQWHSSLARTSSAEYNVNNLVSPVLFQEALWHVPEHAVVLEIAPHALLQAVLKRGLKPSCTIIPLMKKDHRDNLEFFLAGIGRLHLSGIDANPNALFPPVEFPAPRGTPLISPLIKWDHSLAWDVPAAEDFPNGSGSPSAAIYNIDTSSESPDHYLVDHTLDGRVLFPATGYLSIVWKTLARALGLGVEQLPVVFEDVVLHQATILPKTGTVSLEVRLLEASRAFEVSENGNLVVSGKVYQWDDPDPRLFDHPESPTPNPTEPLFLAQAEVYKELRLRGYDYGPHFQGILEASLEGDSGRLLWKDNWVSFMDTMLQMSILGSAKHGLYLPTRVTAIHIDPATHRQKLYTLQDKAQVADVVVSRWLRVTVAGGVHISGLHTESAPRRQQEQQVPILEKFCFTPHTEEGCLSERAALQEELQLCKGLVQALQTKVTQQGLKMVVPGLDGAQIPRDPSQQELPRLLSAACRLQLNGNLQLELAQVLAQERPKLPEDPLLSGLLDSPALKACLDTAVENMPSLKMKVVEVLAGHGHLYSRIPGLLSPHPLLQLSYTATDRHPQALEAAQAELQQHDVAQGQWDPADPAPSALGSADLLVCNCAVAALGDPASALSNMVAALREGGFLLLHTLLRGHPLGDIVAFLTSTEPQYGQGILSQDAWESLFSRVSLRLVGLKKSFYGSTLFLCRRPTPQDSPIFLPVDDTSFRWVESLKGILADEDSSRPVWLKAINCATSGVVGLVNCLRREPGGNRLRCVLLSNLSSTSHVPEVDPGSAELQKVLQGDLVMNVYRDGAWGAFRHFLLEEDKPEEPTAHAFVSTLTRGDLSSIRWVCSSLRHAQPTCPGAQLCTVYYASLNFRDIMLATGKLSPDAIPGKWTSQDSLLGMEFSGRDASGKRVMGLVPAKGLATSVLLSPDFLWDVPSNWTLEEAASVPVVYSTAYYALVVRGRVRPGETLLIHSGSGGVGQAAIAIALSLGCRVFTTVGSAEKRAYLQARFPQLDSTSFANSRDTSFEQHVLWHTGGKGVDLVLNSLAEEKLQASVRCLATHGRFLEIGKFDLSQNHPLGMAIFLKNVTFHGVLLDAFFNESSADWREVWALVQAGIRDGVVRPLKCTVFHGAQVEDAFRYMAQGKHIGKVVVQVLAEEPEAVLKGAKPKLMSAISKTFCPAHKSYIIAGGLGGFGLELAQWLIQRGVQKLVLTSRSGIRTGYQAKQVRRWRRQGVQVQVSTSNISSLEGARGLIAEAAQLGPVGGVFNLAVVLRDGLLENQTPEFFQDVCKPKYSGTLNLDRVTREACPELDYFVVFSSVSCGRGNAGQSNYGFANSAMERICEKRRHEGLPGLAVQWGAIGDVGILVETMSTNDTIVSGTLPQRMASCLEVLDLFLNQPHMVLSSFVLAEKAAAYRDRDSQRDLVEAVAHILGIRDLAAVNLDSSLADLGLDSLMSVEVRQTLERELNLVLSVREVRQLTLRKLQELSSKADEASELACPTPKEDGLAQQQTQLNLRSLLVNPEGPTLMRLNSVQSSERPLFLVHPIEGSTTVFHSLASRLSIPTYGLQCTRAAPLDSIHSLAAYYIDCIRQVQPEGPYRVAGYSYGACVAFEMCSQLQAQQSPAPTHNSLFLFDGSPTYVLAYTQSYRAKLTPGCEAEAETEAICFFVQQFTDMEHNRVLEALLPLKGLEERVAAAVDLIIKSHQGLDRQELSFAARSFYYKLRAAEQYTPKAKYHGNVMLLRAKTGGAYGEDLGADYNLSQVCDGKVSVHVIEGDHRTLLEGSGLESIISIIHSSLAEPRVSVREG

SMILES | inhibition at 100 µM [%]
Cc1ccc(C(=O)N2CCC(c3ccc(C#N)cc3)CC2)cc1NC(=O)NCC(O)COc1ccccc1Cl (stereo not shown) [Example 196, 3-[3-(2-chlorophenoxy)-2-hydroxy-propyl]-1-[5-[4-(4-cyanophenyl)piperidine-1-carbonyl]-2-methyl-phenyl]urea] | 91.7
Cc1ccc(C(=O)N2CCC(c3ccc(F)cc3)CC2)cc1NC(=O)NC1CCN(C(=O)OC(C)(C)C)C1 (stereo not shown) [Example 343, tert-butyl 3-[[5-[4-(4-fluorophenyl)piperidine-1-carbonyl]-2-methyl-phenyl]carbamoylamino]pyrrolidine-1-carboxylate] | 93.6
Cc1ccc(C(=O)N2CCC(c3ccc(C#N)cc3)CC2)cc1NC(=O)NC1CCCN(C)C1 (racemic) [Example 255, (RS)-1-[5-[4-(4-cyanophenyl)piperidine-1-carbonyl]-2-methyl-phenyl]-3-(1-methyl-3-piperidyl)urea] | 102
Cc1ccc(C(=O)N2CCC(c3ccc(C#N)cc3)CC2)cc1NC(=O)NCC(C)(C)C [Example 71, 1-[5-[4-(4-cyanophenyl)piperidine-1-carbonyl]-2-methyl-phenyl]-3-(2,2-dimethylpropyl)urea] | 94.2
Cc1ccc(C(=O)N2CCC(c3ccc(C#N)cc3)CC2)cc1NC(=O)NCCc1c(C)noc1C [Example 67, 1-[5-[4-(4-cyanophenyl)piperidine-1-carbonyl]-2-methyl-phenyl]-3-[2-(3,5-dimethyl-1,2-oxazol-4-yl)ethyl]urea] | 96.9
Cc1ccc(C(=O)N2CCC(c3ccc(C#N)cc3)CC2)cc1NC(=O)NC(C)c1ccncc1 (stereo not shown) [Example 357, 1-[5-[4-(4-cyanophenyl)piperidine-1-carbonyl]-2-methyl-phenyl]-3-(1-pyridin-4-ylethyl)urea] | 102
CCc1ccc(C(=O)N2CCC(c3ccc(C#N)cc3)CC2)cc1NC(=O)NC(C)C [Example 201, 1-[5-[4-(4-cyanophenyl)piperidine-1-carbonyl]-2-ethyl-phenyl]-3-propan-2-yl-urea] | 94
CC(=O)N1CC[C@H](NC(=O)Nc2cc(C(=O)N3CCC(c4ccc(C#N)cc4)CC3)ccc2C)C1 [Example 277, 3-[(3S)-1-acetylpyrrolidin-3-yl]-1-[5-[4-(4-cyanophenyl)piperidine-1-carbonyl]-2-methyl-phenyl]urea] | 96.8
Cc1ccc(C(=O)N2CCC(c3ccc(C#N)cc3)CC2)cc1NC(=O)NCCCN [Example 207, 3-(3-aminopropyl)-1-[5-[4-(4-cyanophenyl)piperidine-1-carbonyl]-2-methyl-phenyl]urea] | 89.7
Cc1ccc(C(=O)N2CCC(c3ccc(C#N)cc3)CC2)cc1NC(=O)NCCc1ccc(S(N)(=O)=O)cc1 [Example 57, 1-[5-[4-(4-cyanophenyl)piperidine-1-carbonyl]-2-methyl-phenyl]-3-[2-(4-sulfamoylphenyl)ethyl]urea] | 96.8
Cc1ccc(C(=O)N2CCC(c3ccc(C#N)cc3)CC2)cc1NC(=O)NCCNC(N)=O [Example 234, 3-[2-(carbamoylamino)ethyl]-1-[5-[4-(4-cyanophenyl)piperidine-1-carbonyl]-2-methyl-phenyl]urea] | 91.5
CCS(=O)(=O)N[C@H]1CC[C@H](NC(=O)Nc2cc(C(=O)N3CCC(c4ccc(C#N)cc4)CC3)ccc2C)C1 [Example 324, 3-[5-[4-(4-cyanophenyl)piperidine-1-carbonyl]-2-methyl-phenyl]-1-[(1S,3S)-3-(ethylsulfonylamino)cyclopentyl]urea] | 97.1
Cc1ccc(C(=O)N2CCC(c3ccc(C#N)cc3)CC2)cc1NC(=O)NCCO [Example 90, 1-[5-[4-(4-cyanophenyl)piperidine-1-carbonyl]-2-methyl-phenyl]-3-(2-hydroxyethyl)urea] | 93.6
Cc1ccc(C(=O)N2CCC(c3ccc(C#N)cc3)CC2)cc1NC(=O)NCCNS(=O)(=O)N(C)C [Example 92, 1-[5-[4-(4-cyanophenyl)piperidine-1-carbonyl]-2-methyl-phenyl]-3-[2-(dimethylsulfamoylamino)ethyl]urea] | 102
Cc1ccc(C(=O)N2CCC(c3ccc(C#N)cc3)CC2)cc1NC(=O)NCCNC(=O)CC(=O)O [Example 104A, 2-[2-[[5-[4-(4-cyanophenyl)piperidine-1-carbonyl]-2-methyl-phenyl]carbamoylamino]ethylcarbamoyl]acetic acid] | 79
Cc1ccc(NC(=O)N(C)C)cc1C(=O)N1CCC(c2ccc(C#N)cc2)CC1 [Example 380, 3-[3-[4-(4-cyanophenyl)piperidine-1-carbonyl]-4-methylphenyl]-1,1-dimethylurea] | 74.8
CC(C)NC(=O)Nc1cc(C(=O)N2CCC(c3ccc(C#N)cc3)CC2)ccc1C#N [Example 22, 3-[2-cyano-5-[4-(4-cyanophenyl)piperidine-1-carbonyl]phenyl]-1-propan-2-yl-urea] | 86.8
Cc1ccc(C(=O)N2CCC(c3ccc(C#N)cc3)CC2)cc1NC(=O)N1CC(NS(C)(=O)=O)C1 [Example 313, N-[5-[4-(4-cyanophenyl)piperidine-1-carbonyl]-2-methyl-phenyl]-3-methanesulfonamido-azetidine-1-carboxamide] | 90.5
Cc1ccc(C(=O)N2CCC(c3ccc(C#N)cc3)CC2)cc1NC(=O)NCCNS(C)(=O)=O [Example 109, 1-[5-[4-(4-cyanophenyl)piperidine-1-carbonyl]-2-methyl-phenyl]-3-(2-methanesulfonamidoethyl)urea] | 98.3
Cc1ccc(C(=O)N2CCC(c3ccc(C#N)cc3)CC2)cc1NC(=O)NCc1ccn(C)n1 [Example 290, 1-[5-[4-(4-cyanophenyl)piperidine-1-carbonyl]-2-methyl-phenyl]-3-[(1-methylpyrazol-3-yl)methyl]urea] | 102
CCN1CCC[C@H]1CNC(=O)Nc1cc(C(=O)N2CCC(c3ccc(C#N)cc3)CC2)ccc1C [Example 149, 3-[5-[4-(4-cyanophenyl)piperidine-1-carbonyl]-2-methyl-phenyl]-1-[[(2S)-1-ethylpyrrolidin-2-yl]methyl]urea] | 80.2
CSc1ccc(NC(=O)NC(C)C)cc1C(=O)N1CCC(c2ccc(C#N)cc2)CC1 [Example 405, 3-[3-[4-(4-cyanophenyl)piperidine-1-carbonyl]-4-methylsulfanylphenyl]-1-propan-2-ylurea] | 66.8

Same assay, conditions: FAS enzyme assay, IC50 from fitted sigmoid curves

SMILES | IC50, inhibition of human Fatty Acid Synthase
Cc1ccc(C(=O)N2CCC(O)(c3cccc(C(F)(F)F)c3)CC2)cc1NC(=O)NC(C)C [1-[5-[4-hydroxy-4-[3-(trifluoromethyl)phenyl]piperidine-1-carbonyl]-2-methylphenyl]-3-propan-2-ylurea] | do not have IC50s in the range of about 0.001 μM to about 30 μM
CCOC(=O)[C@H](CO)NC(=O)Nc1cc(C(=O)N2CCC(c3ccc(C#N)cc3)CC2)ccc1C [Ethyl (2S)-2-[[5-[4-(4-cyanophenyl)piperidine-1-carbonyl]-2-methylphenyl]carbamoylamino]-3-hydroxypropanoate] | do not have IC50s in the range of about 0.001 μM to about 30 μM
COc1ccccc1C1CCN(C(=O)c2ccc(C)c(NC(=O)NC(C)C)c2)CC1 [1-[5-[4-(2-methoxyphenyl)piperidine-1-carbonyl]-2-methylphenyl]-3-propan-2-ylurea] | do not have IC50s in the range of about 0.001 μM to about 30 μM
